Data set [1] concerns acetic acid-induced gastric ulcers. Nature of the data set: Healing effects on rat models with acetic acid-induced gastric ulcers. As to conditions: oral, once a day for 8 days, dose 10 mg/kg, ulcerated area vs vehicle (0.5% CMC). The data set is classed as in vivo. As to the method:
Healing Effects on Rat Models with Acetic Acid-Induced Gastric Ulcers
(1) Production of Gastric Ulcer by Acetic Acid
Rats were fasted from the previous day. A celiotomy was done in each rat under ether anesthesia, and the stomach was exteriorized. Subsequently, 20 μL of a 30% acetic acid solution was injected into the submucosa at the junction of the body of the glandular stomach and the pyloric antrum using a disposable syringe to produce a gastric ulcer.
(2) Test Compound Administration
Each test compound was suspended in a 0.5% carboxymethylcelullose (CMC) solution at concentrations of 0.75 or 2.5 mg/ml. The rats were orally administrated once a day for 8 days starting with the forth day from operation at doses of 3 or 10 mg/kg. A gastric tube and a syringe were used for the oral administration. […]
On the next day the vehicle and the test compound were finally administrated to the rats, the rats were sacrificed by exsanguination under anesthesia with ether, and each stomach was removed. The removed stomachs were fixed in 1% formalin for 15 minutes, dissected along the greater curvature of stomach to expose the ulcer, and the ulcerated area was measured. […]
The ulcerated area was measured under a stereo microscope (10×) with an ocular micrometer (1 mm^2/grid), and the percentage healing ratio was calculated. The percentage healing ratio was calculated by the following formula.

The test system of data set [2] is human Trefoil Factor 2 (hTFF2) gene. Nature of the data set: hTFF2 gene reporter assay (luciferase) using pGL3-hTFF2pro•pWL-neo/MKN-45 #6-2 cell line. Type of data set: cell-based. The note with it: test compound concentration 10^−6 M; 24 hours culture; luciferase activity as control % of dimethylsulfoxide-added wells (100%). As to the method:
Transcription promoting activity on human Trefoil Factor 2 (hTFF2) gene of test compounds was evaluated by means of an hTFF2 gene reporter assay.
(1) Preparation of hTFF2 Gene Reporter Vector pGL3-hTFF2pro
DNA was extracted from HeLa cells (CCL-2, DAINIPPON PHARMACEUTICAL CO., LTD.) using a deoxyribonucleic acid (DNA) extraction kit (DNeasy™ Tissue Kit, manufactured by QIAGEN). The hTFF2 promoter region was amplified using the extracted DNA as a template by means of the polymerase chain reaction (PCR). The oligomers 5′-[…]-3′ and 5′-[…]-3′ were selected as PCR primers to be amplified, based on the report by Beck et al. (Beck S., Sommer P., Blin N., Gott P., 5′-flanking motifs control cell-specific expression of trefoil factor genes (TFF), Int. J. Mol. Med. 2(3), 353-361 (1998)). Platinum® Pfx DNA polymerase was used as DNA polymerase. The PCR was performed under the conditions of denaturing for 30 seconds at 95° C., annealing for 30 seconds at 55° C. and extending for 75 seconds at 68° C., and the procedures were repeated for 32 cycles.
The PCR products were separated and purified by 1% agarose gel electrophoresis, and cloned to a pCR-BluntII-TOPO vector attached to a cloning kit (Zero Blunt® TOPO® PCR Cloning Kit, manufactured by Invitrogen Corporation). The produced plasmid pCR-Blunt-TFF2pro was introduced into E. coli for transformation (TOP 10 Ultracomp™ Cells, manufactured by Invitrogen Corporation), and transformant strain pCR-Blunt-TFF2pro/TOP10 was selectively cultured in LB agar medium containing 30 μg/ml of Zeocin (Zeocin, manufactured by Invitrogen Corporation). The pCR-Blunt-TFF2pro/TOP10 was subjected to shaking culture in 50 ml of LB medium containing 30 μg/ml of Zeocin at 37° C. over night, and a plasmid was prepared using a plasmid preparation kit (Concert™ High Purity Midiprep System, manufactured by GIBCO BRL).
The nucleotide sequence of the PCR product cloned to the plasmid pCR-Blunt-TFF2pro was determined. The determined nucleotide sequence was compared with the counterpart of hTFF2 promoter region reported in a gene bank (GenBank accession AB038162). The nucleotide sequence of the MluI-HindIII region cloned in pCR-Blunt-TFF2pro was identical to GenBank accession AB038162 (FIG. 1).
The underlined portions indicate the recognition sequence (ACGCGT) of the restriction enzyme MluI and the recognition sequence (AAGCTT) of the restriction enzyme HindIII. The nucleotide sequences of the MluI-HindIII region are identical between the hTFF2 promoter region reported in GenBank and the PCR product cloned to the plasmid pCR-Blunt-TFF2pro. […]

Experimental findings from patent publication US7777038B2, “Carbostyril compound” (Otsuka Pharmaceutical Co., Ltd., priority 2004, dated 2010) are described below.

By melting point is commonly meant the temperature of the solid-liquid transition. `COc1ccc(CC2SC(=O)NC2=O)c2ccc(=O)n(C)c12` (stereo not shown) [Example 1, 5-(8-methoxy-1-methyl-2-oxo-1,2-dihydroquinolin-5-ylmethyl)thiazolidine-2,4-dione] yielded a melting point of 254 to 255 °C. Besides, in data set [1], the “Healing Ratio (%)” value is on record as over 20%.

`COC(=O)c1ccc(CN2C(=O)CCc3c(CC4SC(=O)NC4=O)ccc(OC)c32)cc1` (stereo not shown) [Example 25, 5-[8-methoxy-1-(4-methoxycarbonylbenzyl)-2-oxo-1,2,3,4-tetrahydroquinolin-5-ylmethyl]thiazolidine-2,4-dione] gave a melting point of 193.1 to 195.5 °C. In data set [2], the “TFF2 Production Promoting Activity” value is “++ (a TFF2 production promoting activity of 1000% or higher at a test compound concentration of 10^−6 M)”.

As to `CCCCOc1ccc(CC2SC(=O)NC2=O)c2c1N(Cc1ccccc1)C(=O)CC2` (stereo not shown) [Example 32, 5-(1-benzyl-8-butoxy-2-oxo-1,2,3,4-tetrahydroquinolin-5-ylmethyl)thiazolidine-2,4-dione], the “TFF2 Production Promoting Activity” value in data set [2] is “+ (a TFF2 production promoting activity of 300% or higher at a test compound concentration of 10^−6 M)”.

Compound `COc1ccc(CC2SC(=S)NC2=O)c2c1N(CCC(C)C)C(=O)CC2` (stereo not shown) [Example 1315, 8-methoxy-1-(3-methylbutyl)-5-(4-oxo-2-thioxothiazolidin-5-ylmethyl)-3,4-dihydro-1H-quinolin-2-one] displayed a melting point of 139.5 to 141 °C. The “TFF2 Production Promoting Activity” value in data set [2] is on record as “++ (a TFF2 production promoting activity of 1000% or higher at a test compound concentration of 10^−6 M)”.
